Format in all cases: cell-based, mouse
The test system of experiment [1] is NIH3T3 cells overexpressing erbB2. Kind of experiment: MTT cell viability, erbB2 overexpressing cells vs parental line. As to conditions: erbB2 high-expressing cells / parental cell line, 3 to 4 days. In a few lines:
(§1)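 Stable NIH3T3 transfectants (cDNA in pRc-CMV-type vector, G-418-selected, high expressers picked by Western blot) and parental cells were seeded at 1×10^5 cells/ml into twofold serial drug dilutions and grown 3–4 days. MTT formazan was read at 574/655 nm, and log ratios of IC40 values were derived.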

In experiment [2] the test system is NIH3T3 cells overexpressing RhoA. The experiment is described as follows: MTT cell viability, RhoA overexpressing cells vs parental line. The note with it: RhoA high-expressing cells / parental cell line, 3 to 4 days. In short, it runs like this:
as §1

Experiment [3] deals with NIH3T3 cells overexpressing p16/INK4A. Kind of experiment: MTT cell viability, p16/INK4A overexpressing cells vs parental line. The note with it: p16/INK4A high-expressing cells / parental cell line, 3 to 4 days. In short, it runs like this: as §1
The subject of experiment [4] is NIH3T3 cells overexpressing calpastatin. Kind of experiment: MTT cell viability, calpastatin overexpressing cells vs parental line. As to conditions: calpastatin high-expressing cells / parental cell line, 3 to 4 days. In short, it runs like this:
as §1

The subject of experiment [5] is NIH3T3 cells overexpressing CBP8. Kind of experiment: MTT cell viability, CBP8 overexpressing cells vs parental line. The note with it: CBP8 high-expressing cells / parental cell line, 3 to 4 days. In short, it runs like this: as §1
The subject of experiment [6] is NIH3T3 cells overexpressing N-ras. Kind of experiment: MTT cell viability, N-ras overexpressing cells vs parental line. The note with it: N-ras high-expressing cells / parental cell line, 3 to 4 days. In short, it runs like this:
as §1

In experiment [7] the test system is NIH3T3 cells overexpressing Bax. The experiment is described as follows: MTT cell viability, Bax overexpressing cells vs parental line. As to conditions: 3 to 4 days. In short, it runs like this:
(§2)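 Sensitivity is expressed as the logarithm of the ratio of IC40 values between gene-overexpressing and parental NIH3T3 cells. IC40 comes from an MTT assay after 3–4 days of drug exposure, with absorbance read at 574 nm against 655 nm. Untreated wells served as 100% and cell-free wells as 0% controls.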

In experiment [8] the test system is NIH3T3 cells overexpressing HNF4. The experiment is described as follows: MTT cell viability, HNF4 overexpressing cells vs parental line. As to conditions: HNF4 high-expressing cells / parental cell line, 3 to 4 days. In short, it runs like this:
as §2

The test system of experiment [9] is NIH3T3 cells overexpressing HNF3b. The experiment is described as follows: MTT cell viability, HNF3b overexpressing cells vs parental line. The note with it: HNF3b high-expressing cells / parental cell line, 3 to 4 days. In short, it runs like this:
as §2

Experiment [10] concerns NIH3T3 cells overexpressing CaMKIIa. The experiment is described as follows: MTT cell viability, CaMKIIa overexpressing cells vs parental line. The note with it: CaMKIIa high-expressing cells / parental cell line, 3 to 4 days. In short, it runs like this: as §2
Experiment [11] relates to NIH3T3 cells overexpressing Regucalcin. The experiment is described as follows: MTT cell viability, Regucalcin overexpressing cells vs parental line. The note with it: Regucalcin high-expressing cells / parental cell line, 3 to 4 days. In a few lines:
as §1

Experiment [12] relates to NIH3T3 cells overexpressing p33/ING1. Kind of experiment: MTT cell viability, p33/ING1 overexpressing cells vs parental line. The note with it: p33/ING1 high-expressing cells / parental cell line, 3 to 4 days. In short, it runs like this:
as §1

For experiment [13], the system named is NIH3T3 cells overexpressing caspase-3. The experiment is described as follows: MTT cell viability, caspase-3 overexpressing cells vs parental line. As to conditions: caspase-3 high-expressing cells / parental cell line, 3 to 4 days. In short, it runs like this: as §2
The subject of experiment [14] is NIH3T3 cells overexpressing caspase-1. Kind of experiment: MTT cell viability, caspase-1 overexpressing cells vs parental line. The note with it: caspase-1 high-expressing cells / parental cell line, 3 to 4 days. In a few lines: as §2
In experiment [15] the test system is NIH3T3 cells overexpressing caspase-2. The experiment is described as follows: MTT cell viability, caspase-2 overexpressing cells vs parental line. As to conditions: caspase-2 high-expressing cells / parental cell line, 3 to 4 days. In a few lines:
as §1

In experiment [16] the test system is NIH3T3 cells overexpressing STAT1. The experiment is described as follows: MTT cell viability, STAT1 overexpressing cells vs parental line. As to conditions: STAT1 high-expressing cells / parental cell line, 3 to 4 days. In a few lines: as §2
Experiment [17] relates to NIH3T3 cells overexpressing cAMP-PK-CS. Kind of experiment: MTT cell viability, cAMP-PK-CS overexpressing cells vs parental line. As to conditions: cAMP-PK-CS high-expressing cells / parental cell line, 3 to 4 days. In short, it runs like this: as §2
For experiment [18], the system named is NIH3T3 cells, TPA (PKC downreg). The experiment is described as follows: MTT cell viability, TPA (PKC downreg) cells vs parental line. As to conditions: 3 to 4 days.
Experiment [19] has as its system NIH3T3 cells overexpressing cystatin E. The experiment is described as follows: MTT cell viability, cystatin E overexpressing cells vs parental line. As to conditions: cystatin E high-expressing cells / parental cell line, 3 to 4 days. In a few lines:
as §1

Experiment [20] relates to NIH3T3 cells overexpressing Ki-ras. The experiment is described as follows: MTT cell viability, Ki-ras overexpressing cells vs parental line. The note with it: Ki-ras high-expressing cells / parental cell line, 3 to 4 days. In a few lines:
as §1

[21] abbreviates: Bax (first of two Bax lines) high-expressing cells / parental cell line.
[22] abbreviates: Bax (second of two Bax lines) high-expressing cells / parental cell line.

Take `C=C[C@]1(C)CC[C@@H](C(=C)C)C[C@H]1C(=C)C` [b-elemene, β-elemene]: the “logarithmic value of ratio of IC40 values” in experiment [1] is −0.46; in [2] it was 0.00; in [3] it was 0.12; in experiment [4], 0.18; in [5], 0.06; in experiment [6] it was 0.07. Moreover, the “logarithmic value of ratio of IC40 values” in experiment [7] (setting [21]) is on record as 0.14; in experiment [7] (setting [22]), 0.00; in [8], 0.33; in experiment [9], −0.07; in [10], 0.16; in experiment [11] it was −0.09. Further, the “logarithmic value of ratio of IC40 values” in experiment [12] is recorded as −0.14; in experiment [13], 0.28; in experiment [14] it was 0.11; in experiment [15] it was 0.26; in experiment [16] it was 0.05; in experiment [17] it was −0.10. In addition, the figures for the “logarithmic value of ratio of IC40 values” in experiment [18], in experiment [19] and in experiment [20] were 0.00, 0.07 and −0.10, respectively.

`CO[C@H]1[C@@H](OC)C[C@H](C)[C@@H](OC)C2=CC(=O)C=C(NC(=O)/C(C)=C/C=C\[C@H](OC)[C@@H](OC(N)=O)/C(C)=C/[C@@H]1C)C2=O` [HMA, herbimycin A]: the “logarithmic value of ratio of IC40 values” in [1] was −0.55; in experiment [2] it was 0.13; in [3] it was 0.41; in experiment [4] it was −0.14; in experiment [5] it was 0.09; in [6], 0.43. Also, the “logarithmic value of ratio of IC40 values” in experiment [7] (setting [21]) is reported as −0.05; in experiment [7] (setting [22]) it was 0.15; in experiment [8], −0.08; in experiment [9], −0.18; in experiment [10], 0.00; in [11], −0.20. The “logarithmic value of ratio of IC40 values” was 0.38 in experiment [12]; 0.08 in experiment [13]; 0.00 in experiment [14]; 0.10 in [15]; −0.05 in experiment [16]; 0.12 in [17]. Besides, the “logarithmic value of ratio of IC40 values” was −0.07 in [18], 0.00 in experiment [19] and −0.14 in experiment [20].

For `C[C@@H]1O[C@@H](O[C@H]2C[C@@H](O)[C@]3(CO)[C@H]4[C@H](O)C[C@]5(C)[C@@H](C6=CC(=O)OC6)CC[C@]5(O)[C@@H]4CC[C@]3(O)C2)[C@H](O)[C@H](O)[C@H]1O` [Ouabain, ouabain], the “logarithmic value of ratio of IC40 values” in [1] is 0.18; in experiment [2], 0.15; in experiment [3], 0.63; in experiment [4], −0.3; in [5], 0.58; in experiment [6] it was 0.56. In addition, the “logarithmic value of ratio of IC40 values” is 0.40 in experiment [7] (setting [21]); 0.00 in experiment [7] (setting [22]); −0.08 in [8]; −0.23 in [9]; 0.23 in [10]; −0.12 in experiment [11]. The “logarithmic value of ratio of IC40 values” in [12] is recorded as 0.10; in experiment [13], 0.65; in [14] it was 1.26; in experiment [15], −0.05; in experiment [16] it was 0.04; in experiment [17], 0.00. Moreover, the figures for the “logarithmic value of ratio of IC40 values” in [18], in [19] and in experiment [20] were −0.08, 0.49 and 0.18, respectively.

With sodium vanadate, the “logarithmic value of ratio of IC40 values” in experiment [1] is −0.40; in experiment [2], 0.28; in experiment [3], 0.11; in experiment [4], 0.00; in [5] it was 0.03; in [6] it was −0.09. Also, the “logarithmic value of ratio of IC40 values” is listed as 0.00 in [7] (setting [21]); 0.32 in experiment [7] (setting [22]); −0.03 in experiment [8]; 0.22 in experiment [9]; −0.13 in experiment [10]; 0.00 in experiment [11]. For the same compound, the “logarithmic value of ratio of IC40 values” was −0.30 in experiment [12]; 0.14 in experiment [13]; −0.11 in [14]; 0.40 in experiment [15]; 0.00 in experiment [16]; 0.00 in [17]. The entries for the “logarithmic value of ratio of IC40 values” in experiment [18], in [19] and in [20] were −0.03, 0.20 and −0.30, respectively.

Regarding `CC(=O)OCOC(=O)CN(CC(=O)OCOC(C)=O)c1ccccc1OCCOc1ccccc1N(CC(=O)OCOC(C)=O)CC(=O)OCOC(C)=O` [BAPTA-AM], the “logarithmic value of ratio of IC40 values” was −0.40 in experiment [1]; 0.00 in [2]; 0.20 in experiment [3]; 0 in experiment [4]; 0.00 in experiment [5]; 0.00 in experiment [6]. The “logarithmic value of ratio of IC40 values” in experiment [7] (setting [21]) is reported as 0.15; in experiment [7] (setting [22]), 0.00; in experiment [8] it was −0.10; in experiment [9] it was −0.07; in experiment [10], −0.12; in [11] it was −0.39. Moreover, the “logarithmic value of ratio of IC40 values” is 0.00 in experiment [12]; 0.60 in experiment [13]; 0.60 in experiment [14]; 0.23 in [15]; 0.10 in experiment [16]; −0.10 in experiment [17]. In addition, the “logarithmic value of ratio of IC40 values” in [18] is −0.03; in experiment [19], −0.02; in experiment [20] it was −0.15.

(Values after patent publication US20040086901A1, “Database for analyzing gene function and method of analyzing gene function by dspa” (priority 2000, published 2004).)
